# Test results: PMC6044897 (ACS Omega, 2017)
# Key:
# M2R = target: T1, M2R (Homo sapiens, UniProt P08172); assay: Equilibrium competition binding with [^3H]64 at CHO-hM2R cell homogenates
# T1 sequence (P08172 1-466): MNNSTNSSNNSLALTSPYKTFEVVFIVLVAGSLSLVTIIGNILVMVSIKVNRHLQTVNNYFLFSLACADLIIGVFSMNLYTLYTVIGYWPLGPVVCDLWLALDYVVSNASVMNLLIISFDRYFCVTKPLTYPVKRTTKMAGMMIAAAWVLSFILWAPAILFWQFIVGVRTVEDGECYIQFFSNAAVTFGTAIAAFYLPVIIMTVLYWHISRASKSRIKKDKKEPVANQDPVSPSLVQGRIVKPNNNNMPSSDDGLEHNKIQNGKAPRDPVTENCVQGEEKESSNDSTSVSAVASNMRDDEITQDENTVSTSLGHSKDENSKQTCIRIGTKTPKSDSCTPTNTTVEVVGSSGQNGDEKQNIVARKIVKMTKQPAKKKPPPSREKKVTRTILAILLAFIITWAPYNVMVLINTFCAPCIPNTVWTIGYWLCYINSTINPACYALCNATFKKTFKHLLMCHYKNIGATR
# M1R–M5R = details: read-out: Ki (M1R–M4R); range over M1R–M4R; cited from earlier work
SMILES,displacement of [^3H]64 from the M2R-specific binding sites (M2R),Ki (M1R–M5R) [nM]
"CCCCCCOc1nsnc1C1=CCCN(C)C1 [Compound 1, xanomeline]",completely displaced,
"CC(C)[N+](C)(CCOC(=O)C1c2ccccc2Oc2ccccc21)C(C)C [Compound 4, propantheline]",,0.057 to 0.33
